Experimental data published in PubChem BioAssay AID256 (DTP/NCI, 2004).
Values joined by “and” are separate entries in the source; they are usually repeats but may differ in a detail not shown here. Identical values can stand only once. Toxic doses and inconclusive results are not listed. How the source made its calls: active means survival T/C of 150% or more; inactive means T/C below 125% in these data.

System: CD2F1 mice, L1210 leukemia ip, survival T/C
Assay: NCI In Vivo Anticancer Drug Screen. Data for tumor model L1210 Leukemia (intraperitoneal) in CD2F1 (CDF1) mice
Settings: higher = longer survival
Outline: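 Read-out first: treated-group measurement over vehicle-control measurement, expressed as a ratio. Animals bore a transplanted tumor line and were dosed with compound or vehicle.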

[1] = endpoint: mean survival time, dose: 25.0 mg/kg/injection, schedule: Q01DX009 (ip), vehicle: Klucel (hydroxypropylcellulose) (HPC)
[2] = endpoint: mean survival time, dose: 50.0 mg/kg/injection, schedule: Q01DX009 (ip), vehicle: Klucel (hydroxypropylcellulose) (HPC)
[3] = endpoint: mean survival time, dose: 100.0 mg/kg/injection, schedule: Q01DX001 (ip), vehicle: saline
[4] = endpoint: mean survival time, dose: 12.5 mg/kg/injection, schedule: Q01DX009 (ip), vehicle: saline
[5] = endpoint: mean survival time, dose: 25.0 mg/kg/injection, schedule: Q01DX009 (ip), vehicle: saline
[6] = endpoint: mean survival time, dose: 50.0 mg/kg/injection, schedule: Q01DX009 (ip), vehicle: saline
[7] = endpoint: mean survival time, dose: 100.0 mg/kg/injection, schedule: Q01DX009 (ip), vehicle: saline
[8] = endpoint: mean survival time, dose: 100.0 mg/kg/injection, schedule: Q04DX002 (ip), vehicle: saline with Tween-80
[9] = endpoint: mean survival time, dose: 200.0 mg/kg/injection, schedule: Q04DX002 (ip), vehicle: saline with Tween-80
[10] = endpoint: mean survival time, dose: 400.0 mg/kg/injection, schedule: Q04DX002 (ip), vehicle: saline with Tween-80
[11] = endpoint: mean survival time, dose: 200.0 mg/kg/injection, schedule: Q01DX001 (ip), vehicle: saline
[12] = endpoint: mean survival time, dose: 400.0 mg/kg/injection, schedule: Q01DX001 (ip), vehicle: saline
[13] = endpoint: mean survival time, dose: 100.0 mg/kg/injection, schedule: Q04DX003 (ip), vehicle: saline
[14] = endpoint: mean survival time, dose: 200.0 mg/kg/injection, schedule: Q04DX003 (ip), vehicle: saline
[15] = endpoint: mean survival time, dose: 400.0 mg/kg/injection, schedule: Q04DX003 (ip), vehicle: saline

Measured: T/C

O=C(CCl)Nc1ccc(SSc2ccc(NC(=O)CCl)cc2)cc1
inactive: [1] 95 % of control | [2] 96 % of control | endpoint: mean survival time, dose: 100.0 mg/kg/injection, schedule: Q01DX009 (ip), vehicle: Klucel (hydroxypropylcellulose) (HPC) 93 % of control

CCCCC(CC)CNC(=O)CI (centres undefined)
inactive: [3] 96 % of control

CC1OC(n2cc(C(N)=O)c3c(N)ncnc32)C(O)C1O (centres undefined)
inactive: [4] 103 % of control | [5] 103 % of control | [6] 103 % of control | [7] 105 % of control

COc1ccc(NC(=O)Nc2ccccc2OC)c(Cl)c1
inactive: [8] 94 % of control | [9] 87 % of control | [10] 97 % of control

NS(N)(=O)=O
inactive: [7] 105 % of control | endpoint: mean survival time, dose: 200.0 mg/kg/injection, schedule: Q01DX009 (ip), vehicle: saline 100 % of control | endpoint: mean survival time, dose: 400.0 mg/kg/injection, schedule: Q01DX009 (ip), vehicle: saline 97 % of control

O=C(/C=C(\Cl)C(=O)NO)NO
inactive: endpoint: mean survival time, dose: 6.25 mg/kg/injection, schedule: Q01DX009 (ip), vehicle: saline 101 % of control and 103 % of control | [4] 94 % of control and 104 % of control | [5] 95 % of control and 100 % of control | [6] 115 % of control and 108 % of control | [7] 113 % of control and 95 % of control

CC1OC(OCC2OC(Oc3c(-c4ccc(O)c(O)c4)oc4cc(O)cc(O)c4c3=O)C(O)C(O)C2O)C(O)C(O)C1O (centres undefined)
inactive: [3] 100 % of control | [11] 102 % of control | [12] 100 % of control

BrC1CCCC1
inactive: [3] 100 % of control | [11] 102 % of control | [12] 102 % of control

CCOC(=O)c1[nH]c(C2OC(CO)C(O)C2O)nc1O (centres undefined)
inactive: endpoint: median survival time, dose: 49.9 mg/kg/injection, schedule: Q01DX005 (ip), vehicle: saline 96 % of control | endpoint: median survival time, dose: 99.7 mg/kg/injection, schedule: Q01DX005 (ip), vehicle: saline 98 % of control | endpoint: median survival time, dose: 199.3 mg/kg/injection, schedule: Q01DX005 (ip), vehicle: saline 96 % of control

CC(C(=O)O)C1CCC2(C)CCC(=O)C(C)(Cl)C2(O)C1=O (centres undefined)
inactive: [8] 96 % of control | [9] 100 % of control | [10] 100 % of control

CC1(C)N=C(N)N=C(N)N1c1cccc(C(C#N)CCCc2ccccc2)c1 (centres undefined)
inactive: endpoint: mean survival time, dose: 12.5 mg/kg/injection, schedule: Q01DX009 (ip), vehicle: Klucel (hydroxypropylcellulose) (HPC) 104 % of control | [1] 104 % of control | [2] 88 % of control

Oc1ccccc1Cn1ccnc1
inactive: [5] 104 % of control | [6] 98 % of control | [7] 98 % of control and 103 % of control

CCNC(=O)OCCc1c2ccccc2nc2ccccc12
inactive: endpoint: mean survival time, dose: 100.0 mg/kg/injection, schedule: Q04DX002 (ip), vehicle: other 105 % of control and 102 % of control | endpoint: mean survival time, dose: 200.0 mg/kg/injection, schedule: Q04DX002 (ip), vehicle: other 97 % of control and 90 % of control | endpoint: mean survival time, dose: 400.0 mg/kg/injection, schedule: Q04DX002 (ip), vehicle: other 94 % of control and 97 % of control

CCCC(C)N (centres undefined)
inactive: [3] 98 % of control | [11] 98 % of control | [12] 94 % of control

CC1(C)C(C#N)C(=O)N(Cc2ccccc2)C(=O)C1C#N (centres undefined)
inactive: endpoint: mean survival time, dose: 50.0 mg/kg/injection, schedule: Q01DX009 (ip), vehicle: saline with Tween-80 98 % of control | endpoint: mean survival time, dose: 100.0 mg/kg/injection, schedule: Q01DX009 (ip), vehicle: saline with Tween-80 107 % of control | endpoint: mean survival time, dose: 200.0 mg/kg/injection, schedule: Q01DX009 (ip), vehicle: saline with Tween-80 98 % of control

CS(=O)(=O)c1cnc2ccccc2n1
inactive: [13] 97 % of control | [14] 86 % of control | [15] 95 % of control

O=C1C2CC(Cl)C(SSC3CC4C(=O)N(SC(Cl)(Cl)C(Cl)Cl)C(=O)C4CC3Cl)CC2C(=O)N1SC(Cl)(Cl)C(Cl)Cl (centres undefined)
inactive: endpoint: median survival time, dose: 6.25 mg/kg/injection, schedule: Q01DX009 (ip), vehicle: saline with Tween-80 101 % of control | endpoint: median survival time, dose: 12.5 mg/kg/injection, schedule: Q01DX009 (ip), vehicle: saline with Tween-80 95 % of control | endpoint: median survival time, dose: 25.0 mg/kg/injection, schedule: Q01DX009 (ip), vehicle: saline with Tween-80 98 % of control and 100 % of control | endpoint: median survival time, dose: 50.0 mg/kg/injection, schedule: Q01DX009 (ip), vehicle: saline with Tween-80 101 % of control and 102 % of control | endpoint: median survival time, dose: 100.0 mg/kg/injection, schedule: Q01DX009 (ip), vehicle: saline with Tween-80 100 % of control and 102 % of control | endpoint: median survival time, dose: 200.0 mg/kg/injection, schedule: Q01DX009 (ip), vehicle: saline with Tween-80 102 % of control | endpoint: median survival time, dose: 400.0 mg/kg/injection, schedule: Q01DX009 (ip), vehicle: saline with Tween-80 105 % of control

COC(=O)CC(=O)C1(C)CC1
inactive: [13] 90 % of control | [14] 93 % of control | [15] 96 % of control

O=c1[nH]c(=S)[nH]c2ncn(C3OC(CO)C(O)C3O)c12 (centres undefined)
inactive: [3] 102 % of control | [11] 100 % of control | [12] 102 % of control

C/C(=N/Nc1ccc([N+](=O)[O-])cc1[N+](=O)[O-])C(C)C
inactive: endpoint: mean survival time, dose: 75.0 mg/kg/injection, schedule: Q04DX002 (ip), vehicle: saline with Tween-80 95 % of control | endpoint: mean survival time, dose: 150.0 mg/kg/injection, schedule: Q04DX002 (ip), vehicle: saline with Tween-80 98 % of control | endpoint: mean survival time, dose: 300.0 mg/kg/injection, schedule: Q04DX002 (ip), vehicle: saline with Tween-80 98 % of control

Cc1nc2[nH]c(=O)n(O)c(=O)c2s1
inactive: endpoint: mean survival time, dose: 75.0 mg/kg/injection, schedule: Q01DX001 (ip), vehicle: other 102 % of control | endpoint: mean survival time, dose: 150.0 mg/kg/injection, schedule: Q01DX001 (ip), vehicle: other 100 % of control | endpoint: mean survival time, dose: 300.0 mg/kg/injection, schedule: Q01DX001 (ip), vehicle: other 86 % of control

O=C(O)c1ccc(Cl)cc1Nc1ccc(O)cc1
inactive: endpoint: mean survival time, dose: 25.0 mg/kg/injection, schedule: Q04DX002 (ip), vehicle: saline with Tween-80 96 % of control | endpoint: mean survival time, dose: 50.0 mg/kg/injection, schedule: Q04DX002 (ip), vehicle: saline with Tween-80 116 % of control | [8] 101 % of control and 102 % of control

CC(=O)C1=C(C)NC(C)=C(C(C)=O)C1c1cccc([N+](=O)[O-])c1
inactive: endpoint: mean survival time, dose: 100.0 mg/kg/injection, schedule: Q04DX003 (ip), vehicle: saline with Tween-80 94 % of control | endpoint: mean survival time, dose: 200.0 mg/kg/injection, schedule: Q04DX003 (ip), vehicle: saline with Tween-80 91 % of control | endpoint: mean survival time, dose: 400.0 mg/kg/injection, schedule: Q04DX003 (ip), vehicle: saline with Tween-80 96 % of control

C=C(C)[C@@H]1CC[C@]2(CO)CC[C@]3(C)[C@H](CC[C@@H]4[C@@]5(C)CC[C@H](O)C(C)(C)[C@@H]5CC[C@]43C)[C@@H]12
inactive: [3] 98 % of control | [11] 98 % of control | [12] 98 % of control

C=COCCN1CCN(CCCN2c3ccccc3Sc3ccc(C(F)(F)F)cc32)CC1
inactive: endpoint: mean survival time, dose: 12.5 mg/kg/injection, schedule: Q04DX003 (ip), vehicle: saline with Tween-80 113 % of control | endpoint: mean survival time, dose: 25.0 mg/kg/injection, schedule: Q04DX003 (ip), vehicle: saline with Tween-80 113 % of control

FC(F)(F)c1nc2nc(Cl)c(Cl)nc2[nH]1
inactive: endpoint: mean survival time, dose: 10.0 mg/kg/injection, schedule: Q01DX009 (ip), vehicle: saline with Tween-80 97 % of control | [4] 102 % of control | endpoint: mean survival time, dose: 20.0 mg/kg/injection, schedule: Q01DX009 (ip), vehicle: saline with Tween-80 106 % of control | [5] 101 % of control | [7] 107 % of control | endpoint: median survival time, dose: 30.0 mg/kg/injection, schedule: Q04DX003 (ip), vehicle: saline with Tween-80 106 % of control | endpoint: median survival time, dose: 44.0 mg/kg/injection, schedule: Q04DX003 (ip), vehicle: saline with Tween-80 106 % of control | endpoint: median survival time, dose: 66.0 mg/kg/injection, schedule: Q04DX003 (ip), vehicle: saline with Tween-80 110 % of control

CN(C)Cc1[c-]c(CN(C)C)ccc1.[Cl][Pt]
inactive: endpoint: median survival time, dose: 1.56 mg/kg/injection, schedule: Q04DX003 (ip), vehicle: saline 101 % of control | endpoint: median survival time, dose: 3.12 mg/kg/injection, schedule: Q04DX003 (ip), vehicle: saline 91 % of control and 107 % of control | endpoint: median survival time, dose: 6.25 mg/kg/injection, schedule: Q04DX003 (ip), vehicle: saline 111 % of control | endpoint: median survival time, dose: 12.5 mg/kg/injection, schedule: Q04DX003 (ip), vehicle: saline 96 % of control and 107 % of control | endpoint: median survival time, dose: 25.0 mg/kg/injection, schedule: Q04DX003 (ip), vehicle: saline 100 % of control and 107 % of control | endpoint: median survival time, dose: 50.0 mg/kg/injection, schedule: Q04DX003 (ip), vehicle: saline 100 % of control and 101 % of control | endpoint: median survival time, dose: 100.0 mg/kg/injection, schedule: Q04DX003 (ip), vehicle: saline 98 % of control
